The conditions of data set [1]: cited from earlier work; for psychomimetic activity: constituents of cannabis.
Data set [2] can be described thus: stability of Δ9-THC on handling and storage. The settings on record: solution prepared below room temperature, typically below 0° C., in some instances −40° C. and even −78° C.
For data set [3] the following is noted: susceptible to rearrangement and oxidation; cited from earlier work.

The structures appear in SMILES notation.

Take `CCCCCc1cc(O)c2c(c1)OC(C)(C)[C@@H]1CCC(C)=C[C@@H]21` [Δ9-THC, Δ9-tetrahydrocannabinol]: the “psychomimetic activity relative to Δ8-THC” value in data set [1] (greater than Δ8-THC) is 20 times. For the same compound, the “stability / degradation in solution of low boiling point solvent” value in data set [2] was “no significant degradation”. In addition, in data set [3], the “stability at room temperature” value is listed as “relatively unstable”. In the case of `C=C(C)[C@@H]1CCC(C)=C[C@H]1c1c(O)cc(CCCCC)cc1O` [Cannabidiol], the psychomimetic activity result in data set [1] is given as “little activity”. Consider `CCCCCc1cc2c(c(O)c1C(=O)O)[C@@H]1C=C(C)CC[C@H]1C(C)(C)O2` [THCA-A, Δ9-THC carboxylic acid], for which, in data set [1], the psychomimetic activity entry was “psychomimetically inactive”.

The record behind these values is patent publication US8530679B2, “Delta 9—tetrahydrocannabinol processing” (Resolution Chemicals Limited, priority 2007, dated 2013).
